Laboratory results published in patent US20240251792A1, “WEED CONTROL METHOD” (SYNGENTA CROP PROTECTION AG, priority 2021, published 2024).
Read-outs that look alike come from different tables or passages of the source.

Key:
Type in all cases: in vivo
ABUTH = test: Pre-emergence biological efficacy (Table 3); conditions: Abutilon theophrasti, 312 h, after 13 days, read-out: evaluation (100=total damage to plant; 0=no damage to plant)
Description: (§1) Seeds of weeds and/or crops were sown in standard soil in pots. After cultivation for one day under controlled conditions in a glasshouse (at 24/19° C., day/night; 16 hours light), the plants were sprayed with an aqueous spray solution derived from the formulation of the technical active ingredient in a small amount of acetone and a special solvent and emulsifier mixture referred to as AMA (11.12% Emulsogen EL360 TM+44.44% N-methylpyrrolidone+44.44% Dowanol DPM glycol ether), to create a 50 g/l solution which was then diluted using 0.2% Genapol X080 as diluent to give the desired final dose of test compound.
(§2) The test plants were then grown under controlled conditions in the glasshouse (at 24/18° C., day/night; 15 hours light; 50% humidity) and watered twice daily. After 13 days the test was evaluated (100=total damage to plant; 0=no damage to plant).

AMARE = test: Pre-emergence biological efficacy (Table 3); conditions: Amaranthus retroflexus, 312 h, 1000 g/ha, after 13 days, read-out: evaluation (100=total damage to plant; 0=no damage to plant)
Description: as §1, §2

IPOHE = test: Pre-emergence biological efficacy (Table 3); conditions: Ipomoea hederacea, 312 h, 1000 g/ha, after 13 days, read-out: evaluation (100=total damage to plant; 0=no damage to plant)
Description: as §1, §2

STEME = test: Pre-emergence biological efficacy (Table 3); conditions: 312 h, after 13 days, read-out: evaluation (100=total damage to plant; 0=no damage to plant)
Description: as §1, §2

ZEAMX = test: Pre-emergence biological efficacy (Table 3); conditions: 312 h, 1000 g/ha, after 13 days, read-out: evaluation (100=total damage to plant; 0=no damage to plant)
Description: as §1, §2

weeds and/or crops = test: Post-emergence biological efficacy (Table 4); conditions: 312 h, 1000 g/ha, evaluated after 13 days
Description: as §1, with “14 days” for “one day”, “F50” for “AMA”
as §2

ECHCG = test: Pre-emergence biological efficacy (Table 3); conditions: Echinochloa crus-galli, 312 h, 1000 g/ha, after 13 days, read-out: evaluation (100=total damage to plant; 0=no damage to plant)
Description: as §1, §2

[1] = STEME, read-out: damage to plant STEME (100=total damage; 0=no damage)
[2] = ZEAMX, read-out: damage to plant ZEAMX (100=total damage; 0=no damage)
[3] = Abutilon theophrasti, ABUTH, read-out: damage to plant ABUTH (100=total damage; 0=no damage)
[4] = Amaranthus retroflexus, AMARE, read-out: damage to plant AMARE (100=total damage; 0=no damage)
[5] = Ipomoea hederacea, IPOHE, read-out: damage to plant IPOHE (100=total damage; 0=no damage)

Compound	pest or weed control at 1000 g/ha (ABUTH) [%]	pest or weed control at 1000 g/ha (AMARE) [%]	pest or weed control at 1000 g/ha (IPOHE) [%]	pest or weed control at 1000 g/ha (STEME) [%]	plant injury at 1000 g/ha (ZEAMX) [%]	pest or weed control at 1000 g/ha (weeds and/or crops; [1]) [%]	pest or weed control at 1000 g/ha (weeds and/or crops; [2]) [%]	pest or weed control at 1000 g/ha (weeds and/or crops; [3]) [%]	pest or weed control at 1000 g/ha (weeds and/or crops; [4]) [%]	pest or weed control at 1000 g/ha (weeds and/or crops; [5]) [%]	pest or weed control at 1000 g/ha (ECHCG) [%]	pest or weed control at 1000 g/ha (weeds and/or crops; Echinochloa crus-galli, ECHCG, read-out: damage to plant ECHCG (100=total damage; 0=no damage)) [%]
CCc1cccc(C(F)(F)C(=O)O)c1Cl [Compound 1-196, 2-(2-Chloro-3-ethyl-phenyl)-2,2-difluoro-acetic acid]	70	40	70	80	20	90	10	80	50	70	–	–
C=Cc1cccc(C(F)(F)C(=O)O)c1Cl [Compound 1-207, 2-(2-Chloro-3-vinyl-phenyl)-2,2-difluoro-acetic acid]	90	80	90	90	30	90	30	80	70	80	–	–
C#Cc1cccc(C(F)(F)C(=O)O)c1Cl [Compound 1-208, 2-(2-Chloro-3-ethynyl-phenyl)-2,2-difluoro-acetic acid]	100	90	90	100	80	90	70	90	90	90	–	–
O=C(O)C(F)(F)c1cc(Cl)c(Cl)cc1O [Compound 1-298, 2-(4,5-Dichloro-2-hydroxy-phenyl)-2,2-difluoro-acetic acid]	0	0	0	0	0	0	20	10	10	10	–	–
CSc1c(C(F)(F)C(=O)O)ccc(Br)c1Cl [Compound 1-359, 2-(4-Bromo-3-chloro-2-methylsulfanyl-phenyl)-2,2-difluoro-acetic acid]	0	10	0	0	10	0	20	10	10	10	–	–
O=C(O)C(F)(F)c1cccc2cccnc12 [Compound 1-403, 2,2-Difluoro-2-(quinoline-8-yl)acetic acid]	80	80	90	70	30	80	20	80	90	70	–	–
CCOC(=O)C(F)(F)c1c(Cl)cccc1[N+](=O)[O-] [Compound 3-67, Ethyl 2-(2-chloro-6-nitrophenyl)-2,2-difluoroacetate]	0	10	20	10	0	0	20	10	50	50	–	–
Nc1c(Cl)cc(Cl)cc1C(F)(F)C(=O)O [Compound 7-253, Ammonium 2-(2-amino-3,5-dichloro-phenyl)-2,2-difluoro-acetate]	0	0	0	–	–	60	10	40	60	70	0	0
